No end group written: not given here.
Legend:
[1] = Organ uptake by dynamic magnetic resonance imaging; type: in vivo, mice; conditions: FIG. 7C
Experimental: (§1) FIG. 7: Targeted delivery of MBP peptides to LSEC with nanoparticles. A) Plasma clearance rates of MBP peptide coupled to ^59Fe-NP (MBP-^59Fe-NP) and ^14C-MBP peptide coupled to unlabeled NP(^14C-MBP-NP). B) Organ distribution of MBP-^59Fe-NP and ^14C-MBP-NP 60 min after intravenous injection. Mean values±s.e.m. are shown (n=4). C) Representative coronal and transversal MR images of mice pre and post injection of unloaded NP or MBP-NP. D) Intravital confocal microscopy of the liver showing uptake of MBP-NP or unloaded NP by LSEC. Nuclei were also stained. right panel: LSEC (FITC-dextran), left panel: quantum dot-labeled NP; scale bar: 20 μm. E) Electron microscopy of liver, 60 min after intravenous injection of MBP-NP or unloaded NP.
(§2) To develop a method for selective delivery of autoantigen to LSEC in vivo, the inventors made use of nanoparticles (NP) that are rapidly cleared from the circulation through uptake by liver cells. Specifically, the inventors took advantage of a polymer-coated nanoparticle (43), which they observed to accumulate selectively in liver sinusoidal endothelium (data not shown). […] Low amounts of radioactivity could be detected in spleen and kidney, whereas uptake into other organs was negligible. […]

EAE in tg4 mice = assay: Prevention of MBP-induced EAE in tg4 mice; type: in vivo; conditions: single injection one day after EAE-induction, tg4 mice (FIG. 8B)
Experimental: (§3) FIG. 8: Nanoparticle-based delivery of neuroantigen peptides to LSEC prevents EAE induction. EAE was induced in B10.PL wildtype mice (A, E) or tg4 mice (B) by immunization to MBP. In C57BL/6 wildtype mice (C) or hCD2-ΔkTβRII mice (D), EAE was induced by immunization to MOG. One day after EAE induction, mice were injected once intravenously with PBS (A-E) or neuroantigen peptide-loaded nanoparticles (MBP-NP (A, B, E) or MOG-NP (C, D,). As control, mice received equivalent amounts of unloaded NP (A, C) or unconjugated MBP peptide (B,). E, Twice per week, mice treated with MBP-NP were intraperitoneally injected with Treg-depleting PC61 antibody (MBP-NP/Treg-depleted) or isotype-matched control antibody (MBP-NP). Shown are mean EAE scores±s.e.m. (n=5-7).
(§4) The proposed immunosuppressive effect of MBP-nanoparticles in vivo was first tested in MBP-induced EAE in B10.PL mice (FIG. 8A). […] To confirm the efficacy of the inventive treatment approach in another independent disease model, the effect of nanoparticles loaded with myelin oligodendrocyte glycoprotein (MOG) peptides on the development of MOG-induced EAE was tested in C57BL/6 mice.

LSEC = assay: Cellular tropism of peptide-nanoparticle conjugates in liver (intravital confocal microscopy, electron microscopy); type: in vivo, mice
Experimental: as §1
(§5) To further investigate the cellular tropism of administered peptide-nanoparticle conjugates, conventional as well as intravital confocal fluorescence microscopy of the liver was performed, using nanoparticles with a fluorescent quantum dot core (44). Prior to administration of fluorescent MBP peptide-nanoparticle conjugates, recipient mice were injected with FITC-dextran that is rapidly absorbed by LSEC. […] To confirm that delivered peptide can be presented to T cells, Treg conversion in vitro by LSEC in the presence of free MBP peptide or of MBP peptide bound to nanoparticles (MBP-NP) was studied.

[2] = tested on: experimental autoimmune encephalomyelitis (EAE) in B10.PL mice; assay: Treatment of EAE with autoantigen-loaded nanoparticles (Example 4); type: in vivo; conditions: injected into B10.PL mice one day after EAE induction by Ac1-9 MBP peptide (FIG. 5)
Experimental: For covalent conjugation of neuroantigen peptide (encephalitogenic Ac1-9 peptide derived from the amino acid sequence of myelin basic protein), iron oxide-core nanoparticles were synthesized as described in example 3 and adjusted to a concentration of 6 μmol/L in 50 mM SBB-buffer (pH=9). An equal amount of 1-Ethyl-3-(3-dimethylaminopropyl)carbodiimide (c=[…]), dissolved in a 50 mM SBB-buffer (pH=9), was added. After 5 minutes, a 1000-fold excess of the neuroantigen peptide was added and the solution was incubated under rotation for 2h at room temperature and then overnight at 4° C. On the next day, the solution was filtered under centrifugal force in a filter device (100 kDa, 2500 g, 4° C.) and the remnant resuspended in PBS. This procedure was repeated 20 times to remove all excess peptide. The obtained peptide-particle conjugates were dissolved in PBS and subjected to size-exclusion-chromatography to assure for the absence of free peptide. Then, the iron content was measured to determine the concentration of the peptide-particle suspension.
Results: The thus obtained peptide-loaded nanoparticles or, as control, unconjugated peptide-free nanoparticles were then injected into B10.PL mice (n=6), one day after induction of experimental autoimmune encephalomyelitis (EAE) by immunization to Ac1-9 myelin basic protein peptide (25).

[3] = tested on: MBP-induced EAE in B10.PL mice; assay: Prevention of MBP-induced EAE in B10.PL mice; type: in vivo; conditions: single intravenous injection one day after EAE-induction, B10.PL mice (FIG. 8A)
Experimental: as §3, §4

[4] = Zeta potential measurement (Malvern Zetasizer Nano-ZS); type: physicochemical; conditions: 20° C.
Experimental: FIG. 12: Characteristics of NP and MBP-NP. A) The Zeta potentials of NP and MBP-NP were measured at 20° C. using a Malvern Zetasizer Nano-ZS instrument. […] No differences in size could be detected by B) size exclusion chromatography (MBP-NP: left line; NP: right line) or C) by transmission electron microscopy. For electron microscopy, samples were stained with 1% sodium silicotungstate, pH 7, so that the organic shell appears light and the iron oxide core dark.

[5] = tested on: MBP-induced EAE in B10.PL mice; assay: MBP-induced EAE in B10.PL mice with Treg depletion by PC61 antibody; type: in vivo
Experimental: as §3
FIG. 13: Depletion of CD25+Foxp3+CD4+ Treg in vivo by repeated PC61 antibody-administration. B10.PL mice were immunized to MBP peptide and treated on the next day with PBS (n=7) or MBP peptide-coupled nanoparticles (MBP-NP). Mice, which received MBP-NP, were then either treated twice per week with Treg-depleting PC61 antibody (n=5) or non-depleting isotype-matched control antibody (n=6). Mice were sacrificed on day 29 post immunization and spleens were analyzed for Treg depletion efficiency by flow cytometry. Results are depicted as mean % of CD25+Foxp3+of CD4+ T cells±s.e.m. (PBS 17.16±0.3422; MBP-NP+isotype 15.08±0.8594; MBP-NP+PC61 3.160±0.4643; P<0.001). For comparison of multiple groups, one-way ANOVA and Tukey's post test were performed.
As the inventors have shown above that tolerance induction by LSEC required TGFβ signaling to T cells, they reasoned that nanoparticle-based targeting of autoantigen peptides to LSEC should be ineffective in mice with TGFβ-insensitive T cells. […] Thus, it can be concluded that also in vivo, the efficacy of nanoparticle-mediated tolerance induction is dependent on TGFβ signaling to T cells. […]

[6] = tested on: Splenic CD4+Foxp3− T cells from tg4×Foxp3gfp.KI mice; assay: Treg conversion by LSEC in vitro with nanoparticle-conjugated or free MBP peptide; type: cell-based; conditions: co-culture with LSEC, TGFβ 2 ng/ml, MBP peptide 5 ng/ml or equivalent dose, four days, flow cytometry (FIG. 11); in % (unit assumed)
Experimental: FIG. 11: Efficient Treg conversion by LSEC in vitro using nanoparticle-conjugated MBP peptide or free MBP peptide. Splenic CD4+Foxp3− T cells from tg4×Foxp3gfp.KI mice were co-cultured with LSEC in the presence of TGFβ (2 ng/ml) and free MBP peptide (5 ng/ml) or an equivalent dose of MBP peptide coupled to nanoparticles (MBP-NP) for four days. Foxp3 induction in CD4+ T cells was then analyzed by flow cytometry. For statistical analysis, Mann-Whitney test was performed (free MBP: 32.16±1.075; MBP-NP: 29.63±1.558; P=0.2857). n.s.=not significant.
as §5

[7] = design: species or system mice; conditions: mouse, in vivo, iv
Experimental: as §1, §2

CD4+CD25− T cells = assay: Generation of Treg cells from CD4+CD25− non-regulatory T cells by antigen presenting cells; type: cell-based, mouse
Experimental: Mouse liver non-parenchymal cells were isolated applying a protocol modified from (28). Briefly, mouse livers were perfused with 0.05% collagenase IV (Sigma; Taufkirchen, Germany) in Gey's balanced salt solution, mechanically dissected and further digested in 0.05% collagenase IV in Gey's balanced salt solution for 25 minutes at 37° C. at constant rotation (240 rpm). Hepatocytes and debris were sedimented twice at 40 g and non-parenchymal cells were recovered by centrifugation over a 17% Optiprep (Sigma) gradient at 400 g.
Liver sinusoidal endothelial cells (LSEC) were purified from the non-parenchymal cells as described (29) by magnetic sorting with the ME-9F1 antibody (Miltenyi Biotech, Bergisch-Gladbach, Germany). LSEC were seeded on collagen-coated culture plates (Serva, Heidelberg, Germany). After overnight culture in Iscove's modified Dulbecco's medium supplemented with 5% FCS, non-adherent cells were removed by medium change. Accordingly, Kupffer cells were purified from the non-parenchymal cells by magnetic sorting with biotinylated F4/80 antibody (eBioscience, Frankfurt, Germany) and anti-biotin microbeads (Miltenyi).
Alternatively, hepatocytes were isolated from mouse livers as described (30); and dendritic cells were isolated from mouse spleen by magnetic cell separation for CD11c as described (30).
10^5 LSEC, 10^5 Kupffer cells, or 5×10^3 hepatocytes were seeded into 96-well plates, and used on the following day for stimulation of CD4+CD25− T cells. Alternatively, 5×10^4 dendritic cells, were seeded into 96-well plates, and used on the same day for stimulation of CD4+CD25− T cells. These CD4+CD25− non-regulatory T cells were isolated from mouse spleens by magnetic cell separation, and 5×10^5 purified lymphocytes per well were then stimulated on the indicated antigen presenting cells in serum-free medium (Pan Biotech, Aidenbach, Germany) with solute antibody to CD3 (BD Bioscience, Heidelberg, Germany). After four days of culture, the T cells were harvested and analysed by flow cytometry for the percentage of CD4+CD25+FOXP3+ Treg cells. […]

MBP-NP: Ac1-9 myelin basic protein peptide covalently conjugated by carbodiimide to polymer-coated iron oxide-core nanoparticles (Ac-MGNHSGKRE; also: carbodiimide-conjugated to polymer-coated iron oxide nanoparticles; UniProt P04370 1-9, looked up, fragment)
organ uptake by dynamic magnetic resonance imaging [1]: only hepatic targeting | clinical EAE (EAE in tg4 mice): protected from disease | uptake by LSEC by transmission electron microscopy (LSEC; 60 min after intravenous injection (FIG. 7E)): sizeable internalization | localisation in liver by intravital confocal fluorescence microscopy (LSEC; quantum dot core, intravenous injection, FITC-dextran stained LSEC (FIG. 7D)): co-localized with FITC-dextran stained LSEC | protection from clinical EAE [2]: complete protection from clinical EAE | clinical EAE [3]: lasting and almost complete protection from clinical EAE | averaged Zeta-potential [4]: −61.6 mV | protection from EAE ([5]; Treg-depleted mice (repeated PC61 antibody) (FIG. 8E)): could not prevent the development of disease | protection from EAE ([5]; control mice (isotype-matched control antibody) (FIG. 8E)): induced protection from EAE | mean % of CD25+Foxp3+of CD4+ T cells±s.e.m. ([5]; spleens, day 29 post immunization, flow cytometry, B10.PL mice (FIG. 13)): 15.08±0.8594% | Foxp3 induction in CD4+ T cells [6]: 29.63±1.558

MBP-^59Fe-NP: 59Fe-radiolabeled nanoparticles conjugated to non-labeled MBP peptide (MGNHSGKRE; also: conjugated to 59Fe-labelled nanoparticles; UniProt P04370 1-9, looked up, fragment)
plasma clearance kinetics of radiolabel [7]: cleared with similar kinetics

TGFβ: exogenous cytokine added to some stimulation cultures
percentage of CD4+CD25+FOXP3+ Treg cells among stimulated T cells (CD4+CD25− T cells; LSEC-stimulated T cells, in the presence of TGFβ, four days of culture): 38% | percentage of CD4+CD25+FOXP3+ Treg cells among stimulated T cells (CD4+CD25− T cells; dendritic cell-stimulated T cells, in the presence of exogenous TGFβ, four days of culture): 7.5% | percentage of CD4+CD25+FOXP3+ Treg cells among stimulated T cells (CD4+CD25− T cells; liver cell-stimulated T cells (LSEC, Kupffer cells and hepatocytes), in the presence of exogenous TGFβ): at least 20%

^14C-MBP-NP: 14C-radiolabeled MBP peptide coupled to unlabeled NP (MGNHSGKRE; also: 14C label, nanoparticle conjugate; UniProt P04370 1-9, looked up, fragment)
plasma clearance kinetics of radiolabel [7]: cleared with similar kinetics

free MBP peptide: encephalitogenic Ac1-9 peptide derived from the amino acid sequence of myelin basic protein, not coupled (Ac-MGNHSGKRE; UniProt P04370 1-9, looked up, fragment) [reference compound]
clinical EAE (EAE in tg4 mice): developed severe EAE | Foxp3 induction in CD4+ T cells [6]: 32.16±1.075
